Measured values: patent US20240239788A1, “SMALL MOLECULE INHIBITORS OF KRAS G12D MUTANT” (Merck Sharp & Dohme LLC, priority 2021, published 2024)
Read-outs that look alike come from different tables or passages of the source.

How the values were obtained:
[1] = test system: AsPC-1 cells containing homozygous KRAS-G12D activating mutation; experiment: Cellular phospho-ERK assay (Examples 1a-106); type: cell-based; conditions: AsPC-1 cells, 2 hours, ratio of p-Erk vs total Erk, read-out: IC50 (nM) pERK (Cell)
Source text: 5% CO? overnight. […] Assay plates were read on a EnVision Multimode Plate Reader (PerkinElmer) and the ratio of p-Erk vs total Erk in each well was used as the final readout.

[2] = biological target: KRAS protein containing G12D mutation (Homo sapiens (Human), UniProt P01116, G12D); experiment: SOS-catalyzed nucleotide exchange assay (GNE), TR-FRET; type: biochemical; conditions: biotinylated KRAS G12D, SOS and GTP, 60-minute incubation
Experimental: Compounds are added to this complex and then after a 60-minute incubation time the mixture is treated with SOS and unlabeled GTP. Small molecule inhibitors stabilize the Bodipy-GDP complex whereas the untreated protein rapidly exchanges Bodipy-GDP for unlabeled GTP resulting in reduced TR-FRET signal.
This solution is referred to as biotinylated KRAS G12D stock solution.

Chain of KRAS protein containing G12D mutation (P01116 other isoform, or with tags, fused parts or gaps G12D (already in the parent)): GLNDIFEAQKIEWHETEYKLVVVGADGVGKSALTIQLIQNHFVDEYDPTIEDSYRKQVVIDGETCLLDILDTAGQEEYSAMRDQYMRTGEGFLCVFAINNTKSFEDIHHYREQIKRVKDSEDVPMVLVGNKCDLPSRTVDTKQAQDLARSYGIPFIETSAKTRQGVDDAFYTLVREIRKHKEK

Molecule `Oc1cc(-c2c(F)cc3c(N4CC5CC(F)C(C4)N5)nc(OCC4(CN5CCOCC5)CC4)nc3c2F)c2ccccc2c1` (single isomer, unassigned) [Ex. 3a, 4-(6,8-difluoro-4-(6-fluoro-3,8-diazabicyclo[3.2.1]octan-3-yl)-2-((1-(morpholinomethyl)cyclopropyl)methoxy)quinazolin-7-yl)naphthalen-2-ol] has an IC50 [1] of 3610 nM and an IC50 [2] of 506 nM.
With `Oc1cc(-c2c(F)cc3c(N4CC5CC(F)C(C4)N5)nc(OCC4(CN5CCOCC5)CC4)nc3c2F)c2ccccc2c1` (single isomer, unassigned) [Ex. 3b, 4-(6,8-difluoro-4-(6-fluoro-3,8-diazabicyclo[3.2.1]octan-3-yl)-2-((1-(morpholinomethyl)cyclopropyl)methoxy)quinazolin-7-yl)naphthalen-2-ol] the IC50 [1] was 8240 nM and the IC50 [2] was 2160 nM.
`C#Cc1cccc2cc(O)cc(-c3c(F)cc4c(N5C[C@H]6CC[C@@](C)(C5)N6)nc(OC[C@]5(CO)CC5(F)F)nc4c3F)c12` (single isomer, unassigned) [Ex. 90] showed an IC50 ([1]; Homo sapiens, ASPC1, 2 h) of 564 nM and an IC50 [2] of 0.565 nM.
With `C[C@]12CC[C@H](CN(c3nc(OCC4(CN5CCOCC5)CC4)nc4c(F)c(-c5c(F)cc(F)c6ccc(N)nc56)c(Cl)cc34)C1)N2` (single isomer, unassigned) [Ex. 91a] the IC50 [1] was 17600 nM and the IC50 [2] was 11100 nM.
In the case of `C[C@]12CC[C@H](CN(c3nc(OCC4(CN5CCOCC5)CC4)nc4c(F)c(-c5c(F)cc(F)c6ccc(N)nc56)c(Cl)cc34)C1)N2` (single isomer, unassigned) [Ex. 91b], the IC50 [1] is reported as 4160 nM and the IC50 [2] is reported as 1020 nM.
Work on `Cc1cc2[nH]ncc2c(C2Cc3nc(OC[C@]4(CN(C)C)CC4(F)F)nc(N4C[C@H]5CC[C@@](C)(C4)N5)c3C(=O)O2)c1C(F)(F)F` (single isomer, unassigned) [Ex. 96a] yielded an IC50 [1] of 20800 nM and an IC50 [2] of 1280 nM.
`CN(C)C1CC[C@H]2C[C@@]12COc1nc(N2C[C@H]3CC[C@@](C)(C2)N3)c2cc(F)c(-c3cc(O)cc4ccccc34)c(F)c2n1` (single isomer, unassigned) [Example 12a] gave an IC50 [1] of 396 nM and an IC50 [2] of 1.89 nM.
Molecule `CN(C)C1CC[C@H]2C[C@@]12COc1nc(N2C[C@H]3CC[C@@](C)(C2)N3)c2cc(F)c(-c3cc(O)cc4ccccc34)c(F)c2n1` (single isomer, unassigned) [Example 12b] has an IC50 [1] of 841 nM and an IC50 [2] of 2.07 nM.
For `CN(C)CC1(COc2nc(N3CC4CC(O)C(C3)N4)c3cc(Cl)c(-c4cc(O)cc5ccccc45)c(F)c3n2)CC1` (single isomer, unassigned) [Example 19a], the IC50 ([1]; Homo sapiens, ASPC1, 2 h) was 50800 nM and the IC50 [2] was 1180 nM.
`CN(C)CC1(COc2nc(N3CC4CC(O)C(C3)N4)c3cc(Cl)c(-c4cc(O)cc5ccccc45)c(F)c3n2)CC1` (single isomer, unassigned) [Example 19b] was tested, and the IC50 [1] was 50800 nM and the IC50 [2] was 1790 nM.
`CN(C)CC1(COc2nc(N3CC4CC(O)C(C3)N4)c3cc(Cl)c(-c4cc(O)cc5ccccc45)c(F)c3n2)CC1` (single isomer, unassigned) [Example 22a, 3-(6-chloro-2-((1-((dimethyl-amino)methyl)cyclo-propy)methoxy)-8-fluoro-7-(3-hydroxy-naphthalen-1-yl)quinazolin-4-yl)-3,8-diazabicyclo[3.2.1]oc tan-6-ol] was tested, and the IC50 [1] was 50800 nM and the IC50 [2] was 5090 nM.
With `CN(C)CC1(COc2nc(N3CC4CC(O)C(C3)N4)c3cc(Cl)c(-c4cc(O)cc5ccccc45)c(F)c3n2)CC1` (single isomer, unassigned) [Example 23, 3-(6-chloro-2-((1-((dimethyalmino)meth-yl)cyclopropyl)meth-oxy)-8-fluoro-7-(3-hydroxynaphthalen-1-yl)quinazolin-4-yl)-3,8-diazabicyclo[3.2.1]oc-tan-6-ol] the IC50 [1] was 44800 nM and the IC50 [2] was 4280 nM.
Work on `CN(C)CC1(COc2nc(N3C[C@@]4(C)CC[C@H]3CN4)c3cc(Cl)c(-c4cc(O)cc5ccccc45)c(F)c3n2)CC1` (single isomer, unassigned) [Example 38b] yielded an IC50 [1] of 22200 nM and an IC50 [2] of 3400 nM.
With `Cc1cc2[nH]ncc2c(-c2c(F)cc3c(N4CC5CCC(C4)N5)nc(OCC4(CN(C)C)CC4(F)F)nc3c2F)c1C` (single isomer, unassigned) [Example 66a, 1-(1-(((4-(3,8-diazabicyclo [3.2.1]octan-3-yl)-7-(5,6-dimethyl-1H-indazol-4-yl)-6,8-difluoroquinazolin-2-yl)oxy)methyl)-2,2-difluorocyclopropyl)-N,N-dimethylmethanamine] the IC50 ([1]; Homo sapiens, ASPC1, 2 h) was 3460 nM and the IC50 [2] was 54 nM.
For `Cc1cc2[nH]ncc2c(-c2c(F)cc3c(N4CC5CCC(C4)N5)nc(OCC4(CN(C)C)CC4(F)F)nc3c2F)c1C` (single isomer, unassigned) [Example 66b, 1-(1-(((4-(3,8-diazabicyclo [3.2.1]octan-3-yl)-7-(5,6-dimethyl-1H-indazol-4-yl)-6,8-difluoroquinazolin-2-yl)oxy)methyl)-2,2-difluorocyclopropyl)-N,N-dimethylmethanamine], the IC50 [1] was 2120 nM and the IC50 [2] was 31.1 nM.
For `Cc1c(Cl)cc2[nH]ccc2c1-c1c(F)cc2c(N3CC4CCC(C3)N4)nc(OCC3(CN(C)C)CC3)nc2c1F` [Ex 73, 1-(1-(((4-(3,8-diazabicyclo[3.2.1]octan-3-yl)-7-(6-chloro-5-methyl-1H-indol-4-yl)-6,8-difluoroquinazolin-2-yl)oxy)methyl)cyclopropyl)-N,N-dimethylmethanamine], the IC50 ([1]; Homo sapiens, ASPC1, 2 h) was 14000 nM and the IC50 [2] was 1250 nM.
`Cc1c(Cl)cc2[nH]nc(C)c2c1-c1c(F)cc2c(N3CC4CCC(C3)N4)nc(OCC3(CN4CCOCC4)CC3)nc2c1F` [Ex 74, 4-((1-(((4-(3,8-diazabicyclo[3.2.1]octan-3-yl)-7-(6-chloro-3,5-dimethyl-1H-indazol-4-yl)-6,8-difluoroquinazolin-2-yl)oxy)methyl)cyclopropyl)methyl) morpholine] showed an IC50 ([1]; Homo sapiens, ASPC1, 2 h) of 2000 nM and an IC50 [2] of 69.1 nM.
`Cc1c(Cl)cc2[nH]nc(C)c2c1-c1c(F)cc2c(N3C[C@H]4CC[C@@](C)(C3)N4)nc(OC[C@]3(CN(C)C)CC3(F)F)nc2c1F` [Ex 75, 1-((1R)-1-(((7-(6-chloro-3,5-dimethyl-1H-indazol-4-yl)-6,8-difluoro-4-((1S,5R)-1-methyl-3,8-diazabicyclo[3.2.1]octan-3-yl)quinazolin-2-yl)oxy)methyl)-2,2-difluorocyclopropyl)-N,N-dimethylmethanamine] gave an IC50 ([1]; Homo sapiens, ASPC1, 2 h) of 7160 nM and an IC50 [2] of 1440 nM.
In the case of `Cc1cc2[nH]nc(C)c2c(-c2c(F)cc3c(N4C[C@H]5CC[C@@](C)(C4)N5)nc(OC[C@@H]4C[C@@H](F)CN4C)nc3c2F)c1Cl` [Ex 77, 7-(5-chloro-3,6-dimethyl-1H-indazol-4-yl)-6,8-difluoro-2-(((2S,4R)-4-fluoro-1-methylpyrrolidin-2-yl)methoxy)-4-((1S,5R)-1-methyl-3,8-diazabicyclo[3.2.1]octan-3-yl)quinazoline], the IC50 ([1]; Homo sapiens, ASPC1, 2 h) is reported as 5350 nM and the IC50 [2] is reported as 792 nM.
In the case of `Cc1c(Cl)cc2[nH]nc(Cl)c2c1-c1c(F)cc2c(N3C[C@H]4CC[C@@](C)(C3)N4)nc(OCC3(CN4CC[C@@H](F)C4)CC3)nc2c1F` [Ex 78, 7-(3,6-dichloro-5-methyl-1H-indazol-4-yl)-6,8-difluoro-2-((1-(((R)-3-fluoropyrrolidin-1-yl)methyl)cyclopropyl)methoxy)-4-((1S,5R)-1-methyl-3,8-diazabicyclo[3.2.1]octan-3-yl)quinazoline], the IC50 ([1]; Homo sapiens, ASPC1, 2 h) is reported as 6370 nM and the IC50 [2] is reported as 1630 nM.
Molecule `CN(C)C[C@@]1(COc2nc(N3C[C@]4(C)CC[C@H]3CN4)c3cc(F)c(-c4cc(O)cc5ccccc45)c(F)c3n2)CC1(F)F` [Ex 83, 4-(2-(((R)-1-((dimethylamino)methyl)-2,2-difluorocyclopropyl)methoxy)-6,8-difluoro-4-((1S,4S)-4-methyl-2,5-diazabicyclo [2.2.2]octan-2-yl)quinazolin-7-yl) naphthalen-2-ol] has an IC50 ([1]; Homo sapiens, ASPC1, 2 h) of 640 nM and an IC50 [2] of 2.72 nM.
Molecule `Cc1cc(N)nc(-c2c(F)cc3c(N4CC5CCC(C4)N5)nc(OCC4(CN5CCOCC5)CC4)nc3c2F)c1Cl` [Ex 88, 6-(4-((1R,5S)-3,8-diazabicyclo[3.2.1]octan-3-yl)-6,8-difluoro-2-((1-(morpholinomethyl)cyclopropy)methoxy)quinazolin-7-yl)-5-chloro-4-methylpyridin-2-amine] has an IC50 ([1]; Homo sapiens, ASPC1, 2 h) of 13200 nM and an IC50 [2] of 1350 nM.
For `Oc1cc(-c2c(Cl)cc3c(N4CC5NC(C4)C(O)C5O)nc(OCC4(CN5CCOCC5)CC4)nc3c2F)c2ccccc2c1` (centres unmarked) [Ex. 1a, 3-(6-chloro-8-fluoro-7-(3-hydroxynaphthalen-1-yl)-2-((1-(morpholinomethyl)cyclopropyl)methoxy)quinazolin-4-yl)-3,8-diazabicyclo[3.2.1]octane-6,7-diol], the IC50 ([1]; Homo sapiens, ASPC1, 2 h) was 14600 nM and the IC50 [2] was 742 nM.
In the case of `Oc1cc(-c2c(F)cc3c(N4CC5NC(C4)C(O)C5O)nc(OCC4(CN5CCOCC5)CC4)nc3c2F)c2ccccc2c1` (centres unmarked) [Ex. 2, 3-(6,8-difluoro-7-(3-hydroxynaphthalen-1-yl)-2-((1-(morpholinomethyl)cyclopropyl)methoxy)quinazolin-4-yl)-3,8-diazabicyclo[3.2.1]octane-6,7-diol], the IC50 ([1]; Homo sapiens, ASPC1, 2 h) is reported as 33200 nM and the IC50 [2] is reported as 660 nM.
`OCC1(COc2nc(N3CC4CCC(C3)N4)c3cc(F)c(-c4cc(O)cc5ccccc45)c(F)c3n2)CNC1` [Ex. 4, 4-(4-(3.8-diazabicyclo[3.2.1]octan-3-yl)-6,8-difluoro-2-((3-(hydroxymethyl)azetidin-3-yl)methoxy)quinazolin-7-yl)naphthalen-2-ol] showed an IC50 [1] of 50800 nM and an IC50 [2] of 169 nM.
